{"source": "patent US20050239723A1", "about": "“Compositions and methods useful for treatment of acne” (priority 2004, published 2005)", "key": {"[1]": {"system": "Propionibacterium acnes ATCC #11827", "assay": "Antimicrobial susceptibility testing (MIC) by the agar dilution method", "assay_type": "cell-based", "conditions": "Cutibacterium acnes"}, "[2]": {"system": "patients with mild to moderate acne vulgaris", "assay": "Open label study of NV-02 in the topical treatment of mild to moderate acne vulgaris", "assay_type": "in vivo, human", "conditions": "after topical NV-02 twice daily; varied between and within patients", "procedure": "The results were from a study of twenty patients (5 males, 15 females) who were enrolled with varying ethnicity: Caucasian(12), African American (6), Hispanic (1), and Asian (1). The age range was from 20 to 48 years (mean 29.6 years). All subjects received open-label PCL-016 10% gel to be applied twice daily to the face over 12 weeks.\nThe experiment was performed as indicated for the per protocol analysis described under FIG. 1 above.\n22, 2002 • Date of last completed: May 2, 2003 • Methodology: Open label study • Number of patients (planned and analyzed): 15 patients planned, 20 enrolled, 15 completed. • Diagnosis and main criteria for inclusion: mild to moderate acne vulgaris • Test product, dose and mode of administration, batch number: NV-02 applied twice daily to affected areas of the face; Novactyl lot number 155 • Duration of treatment: twice daily for 3 months • Criteria for evaluation: • Efficacy: Total lesion counts, inflammatory lesion count, non-inflammatory lesion count, and Cunliffe's grade, FDA scale • Safety: Adverse events, PCL-0 16 plasma levels, serum chemistry, complete blood count • Statistical Methods: descriptive statistics of patient population, patient demographics, and lesion counts, etc.; changes in lesion counts relative to baseline; percent reduction in lesion counts. […]"}, "skin": {"system": "skin", "assay": "Cumulative irritation study (cream vehicle)", "assay_type": "in vivo", "conditions": "different (cream) vehicle"}, "acne lesions": {"system": "acne lesions", "conditions": "cited from earlier work"}}, "note": "Read-outs that look alike come from different tables or passages of the source.", "data": [{"smiles": "O=C(O)c1ccccn1", "note": "[Picolinic acid, pyridine-2-carboxylic acid]", "values": [{"measurement": "MIC", "setting": "[1]; ATCC11827, P. acnes ATCC #11827, Supplemented Brucella agar with blood, 48-72 hours at 35±2° C., anaerobic, read-out: Minimum Inhibitory Concentration (MIC): lowest concentration that visibly prevented growth", "result": 500, "unit": "µg/mL"}, {"measurement": "absorption into the systemic circulation (plasma levels)", "setting": "[2]", "result": "Small amounts"}, {"measurement": "risk of topical irritation to the skin", "setting": "skin", "result": "low risk of topical irritation"}]}, {"smiles": "CC1=C(/C=C/C(C)=C/C=C/C(C)=C/C(=O)O)C(C)(C)CCC1", "note": "[Tretinoin]", "values": [{"measurement": "reduction of total lesions counts", "setting": "acne lesions; topical agent on the market", "result": "32-45%"}, {"measurement": "photosensitization", "setting": "acne lesions; topical", "result": "photosensitizing"}]}, {"smiles": "CCCCc1ccc(C(=O)O)nc1", "note": "[fusaric acid]", "values": [{"measurement": "MIC", "setting": "[1]; ATCC11827, read-out: Minimum Inhibitory Concentration (MIC): lowest concentration that visibly prevented growth", "result": 100, "unit": "µg/mL"}]}]}
